Test results reported in article PMC11500415, “Chemical inhibition of stomatal differentiation by perturbation of the master-regulatory bHLH heterodimer via an ACT-Like domain” (Nature Communications, 2024).
Where “and” joins values, the source holds several entries; their conditions need not be identical. Equal entries are not always repeated. Where two headings read alike, the source gives them in different places.

Legend:
Assay in all cases: BLI direct binding
Set-up in all cases: species or system A. thaliana
[1] = biological target: T1, FAMA (Arabidopsis thaliana, UniProt Q56YJ8)
T1 construct: ΔNFAMA (190-414); made in house; host or cells: E. coli BL21
T1 sequence (Q56YJ8 190-414): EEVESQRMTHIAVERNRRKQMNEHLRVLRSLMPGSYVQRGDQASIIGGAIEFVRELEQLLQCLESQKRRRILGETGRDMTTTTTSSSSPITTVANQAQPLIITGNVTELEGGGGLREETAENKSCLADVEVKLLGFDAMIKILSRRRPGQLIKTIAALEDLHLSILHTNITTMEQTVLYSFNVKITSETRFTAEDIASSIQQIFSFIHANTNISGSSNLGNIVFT
Text: (§1) A. thaliana SCRM (1-494), ΔNSPCH (98-364), MUTE (1-202), ΔNFAMA (190-414), MUTEΔC (1-114), MUTER133A_R134A, MUTEE162A_E163A, MUTER133A_R134A_E162A_E163A, SCRM-ACTL (405-494), MUTE-ACTL (114-202), SPCH-ACTL (285-364), FAMA-ACTL (306-414), MUTE_ACTLR133A_R134A, MUTE_ACTLE162A_E163A, MUTE_ACTLR133A_R134A_E162A_E163A were cloned into pGEX-4T-1 vector with an N-terminal GST tag and a thrombin cleavage sequence. For protein expression, the constructs were transformed into E. coli strain BL21. For each transformant, a single colony was selected and incubated in 10 ml LB liquid media. The overnight-incubated E. coli suspensions were transferred to 1 L LB medium and incubated at 37 °C for around 2 h until the OD600 reached 0.4–0.6. The isopropyl β-D-1-thiogalactopyranoside ([…] of final concentration) was added to the cultures and the strains were incubated at 22 °C for a further 18 h. GST-fused proteins were purified using glutathione agarose resin. The soluble portion of the cell lysate was loaded onto a GST-Sepharose column. Nonspecifically bound proteins were removed by washing the column with 20 mM Tris pH 8.0, 200 mM NaCl. The bound GST-fused protein was eluted with 10 mm glutathione and 20 mM Tris pH 8.0, 200 mM NaCl. The GST-fused proteins were exchanged with phosphate-buffered saline buffer, and then the solution was treated with 50 μg of thrombin for 10–12 h at 16 ^οC. The GST portion of the protein was cleaved during thrombin digestion, and then the whole solution was reloaded onto the glutathione S-transferase column to obtain pure protein. The purified proteins were further purified by gel filtration on a Superdex-200 (GE) column using fast protein liquid chromatography and phosphate buffer (pH 7.2) as the eluent. The purity of the protein was checked by SDS-PAGE. For detailed lists of oligo DNA and plasmid information, see Supplementary Tables 5, 6, respectively.
(§2) The binding affinities of SCRM to MUTE / MUTER133A_R134A / MUTEE162A_E163A / MUTER133A_R134A_E162A_E163A in presence and absence of Stomidazolone (3) and its analogues (AYSJ1059 (5) and AYSJ1061 (6)), and Stomidazolone / AYSJ1059 / AYSJ1061 interactions with GST-tagged SCRM, MUTE, SPCH, FAMA, MUTE ΔACTL, MUTE_ACTL, SCRM_ACTL, SPCH_ACTL and FAMA_ACTL, MUTER133A_134A, MUTEE162A_E163A, MUTER133A_R134A_E162A_E163A were measured using the Octet Red96 system (ForteBio, Pall Life Sciences) following the manufacturer’s protocols. The optical probes coated with anti-GST were first loaded with 500 nM GST tagged proteins before kinetic binding analyses. The experiment was performed in 96-well plates maintained at 30 °C. Each well was loaded with 200 μL reaction volume for the experiment. The binding buffer used in these experiments contained 1× PBS supplemented with 2% DMSO, 0.02% Tween20. The concentrations of the Stomidazolone as the analyte in the binding buffer were 100, 50, 25, 12.5, 6.25, 3.12, and 1.56 μM. There was no binding of the analytes to the unloaded probes as shown by the control wells. Binding kinetics to all seven concentrations of the analytes were measured simultaneously using default parameters on the instrument. The data were analyzed using the Octet data analysis software. The association and dissociation curves were fit with the 1:1 homogeneous ligand model. The kobs (observed rate constant) values were used to calculate Kd, with steady-state analysis of the direct binding. See Supplementary Table 3 for details.

[2] = biological target: T2, FAMA_ACTL (Arabidopsis thaliana, UniProt Q56YJ8)
T2 construct: FAMA-ACTL (306-414); GST (N, cleaved yes); made in house; host or cells: E. coli BL21
T2 sequence (Q56YJ8 306-414): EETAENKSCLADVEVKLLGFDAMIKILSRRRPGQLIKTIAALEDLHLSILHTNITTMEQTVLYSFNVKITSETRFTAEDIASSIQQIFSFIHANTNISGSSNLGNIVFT
Text: as §1, §2

[3] = biological target: T3, MUTE bHLH domain (Arabidopsis thaliana, UniProt Q9M8K6); conditions: for Response: BLI, GST-MUTE_bHLH on Anti-GST sensor, unit assumed
T3 construct: MUTEΔC (1-114); made in house; host or cells: E. coli BL21
T3 sequence (Q9M8K6 1-114): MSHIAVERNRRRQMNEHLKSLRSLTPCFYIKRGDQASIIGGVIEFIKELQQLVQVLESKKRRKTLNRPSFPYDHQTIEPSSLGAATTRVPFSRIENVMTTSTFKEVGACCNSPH
Text: as §1, §2

[4] = FAMA loaded on Anti-GST sensor, fit per sensor, Stomid Conc. (mM) 200-3.12, rep-1, rep-2
[5] = FAMA, Conc. (mM) 3.12, rep-1, rep-2
[6] = FAMA, Conc. (mM) 6.25, rep-1, rep-2
[7] = FAMA, Conc. (mM) 12.5, rep-1, rep-2
[8] = FAMA, Conc. (mM) 25, rep-1, rep-2
[9] = FAMA, Conc. (mM) 50, rep-1, rep-2
[10] = FAMA, Conc. (mM) 100, rep-1, rep-2
[11] = FAMA, Conc. (mM) 200, rep-1, rep-2

Q: With `O=C1C(c2ccccc2)=NC(NS(=O)(=O)c2ccccc2)(c2ccccc2)N1S(=O)(=O)c1ccccc1` (stereo not shown) [Stomidazolone] as the compound, how does the Kd ([1]; BLI steady state, FAMA, read-out: KD (SS)) read?
A: Its Kd is 0.0782 ± 0.0065 mM.

Q: And the “kdis” value [1, 4]?
A: Its value is 0.177 s⁻¹ and 0.176 s⁻¹ and 0.175 s⁻¹ and 0.178 s⁻¹ and 0.171 s⁻¹ and 0.18 s⁻¹.

Q: And the “kon” value [1, 4]?
A: Its value is 2080 M⁻¹ s⁻¹.

Q: And the Kd ([1]; FAMA loaded on Anti-GST sensor, fit per sensor, Stomid Conc. (mM) 200-3.12, rep-1, rep-2, read-out: KD)?
A: The Kd was 0.0867 mM and 0.0859 mM and 0.0882 mM and 0.0891 mM and 0.0863 mM and 0.0866 mM and 0.0851 mM and 0.0817 mM and 0.0856 mM and 0.0903 mM and 0.0845 mM.

Q: And the RMax [1, 5]?
A: The RMax was 0.095 and 0.0512.

Q: What about the “Req/Rmax(%)” value [1, 5] of the same compound?
A: The value was 100%.

Q: And the Response [1, 5]?
A: The Response was 0.0912 and 0.0512.

Q: What about the “kobs” value [1, 5] of the same compound?
A: Its value is 0.00577 s⁻¹ and 0.0035 s⁻¹.

Q: And the RMax [1, 6]?
A: Its RMax is 0.108 and 0.0812.

Q: And the “Req/Rmax(%)” value [1, 6]?
A: Its value is 97% and 100%.

Q: What about the Response [1, 6] of the same compound?
A: The Response was 0.1071 and 0.0812.

Q: What about the RMax [1, 7] of the same compound?
A: The RMax was 0.124 and 0.1621.

Q: What about the Response [1, 7] of the same compound?
A: Its Response is 0.1223 and 0.1621.

Q: What about the RMax [1, 8] of the same compound?
A: Its RMax is 0.165 and 0.1913.

Q: What about the Response [1, 8] of the same compound?
A: The Response was 0.1623 and 0.1913.

Q: And the RMax [1, 9]?
A: Its RMax is 0.251 and 0.2843.

Q: And the “Req/Rmax(%)” value [1, 9]?
A: The value was 89%.

Q: What about the Response [1, 9] of the same compound?
A: The Response was 0.2461 and 0.2843.

Q: What about the RMax [1, 10] of the same compound?
A: Its RMax is 0.435 and 0.3712.

Q: What about the Response [1, 10] of the same compound?
A: Its Response is 0.4312 and 0.3712.

Q: And the RMax [1, 11]?
A: The RMax was 0.553 and 0.5072.

Q: And the “Req/Rmax(%)” value [1, 11]?
A: Its value is 98%.

Q: What about the Response [1, 11] of the same compound?
A: The Response was 0.5523 and 0.5072.

Q: What about the koff ([1]; read-out: kdis(1/s), FAMA loaded on Anti-GST sensor, fit per sensor, Stomid Conc. (mM) 200-3.12, rep-1, rep-2) of the same compound?
A: Its koff is 0.179 s⁻¹.

Q: And the kon ([1]; read-out: kon(1/Ms), FAMA loaded on Anti-GST sensor, fit per sensor, Stomid Conc. (mM) 200-3.12, rep-1, rep-2)?
A: Its kon is 2070 M⁻¹ s⁻¹.

Q: And the Kd ([2]; BLI steady state, read-out: KD (SS))?
A: The Kd was 105 ± 13.8 µM.

Q: What about the Kd ([2]; BLI, read-out: KD) of the same compound?
A: The Kd was 95.2 ± 3.5 µM.

Q: What about the “binding to MUTE bHLH versus ACTL domain (in words)” value ([3]; BLI (Fig. 6h)) of the same compound?
A: The value was “specifically binds to the ACTL domain”.

Q: What about the Response ([3]; Stomid Conc. (nM) 6.25) of the same compound?
A: The Response was 0.0607 nm.

Q: What about the Response ([3]; Stomid Conc. (nM) 12.5) of the same compound?
A: The Response was 0.0612 nm.

Q: And the Response ([3]; Stomid Conc. (nM) 25)?
A: The Response was 0.0712 nm.

Q: And the Response ([3]; Stomid Conc. (nM) 50)?
A: The Response was 0.0833 nm.

Q: And the Response ([3]; Stomid Conc. (nM) 100)?
A: The Response was 0.0921 nm.

Q: And the Response ([3]; Stomid Conc. (nM) 200)?
A: The Response was 0.106 nm.
